Where two headings read alike, the source gives them in different places.
Test system: test plant species
Test: Post-emergent herbicidal activity test (greenhouse, foliar spray, visual growth reduction)
Assay type: in vivo
Conditions: post-emergence, 336 h, 140 g ai/ha
Procedure, shortened: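 Seedlings were raised 7-21 d in a greenhouse under a 15 h photoperiod until the first or second true leaf. Each compound, dissolved in acetone:DMSO 97:3 and diluted into a surfactant-containing spray mixture, was then applied at 187 L/ha. Plants were subirrigated, and growth reduction was scored visually at 14 d.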

[1] = ECHCG: barnyardgrass (Echinochloa crus-galli), 14 days after application, read-out: Visual Growth Reduction (%) 14 Days After Application, ECHCG
[2] = IPOHE: ivy-leaf morning glory (Ipomoea hederacea), 14 days after application, read-out: Visual Growth Reduction (%) 14 Days After Application, IPOHE
[3] = KCHSC: kochia (Bassia scoparia), 14 days after application, read-out: Visual Growth Reduction (%) 14 Days After Application, KCHSC
[4] = ORYSA: rice (Oryza sativa), 14 days after application, read-out: Visual Growth Reduction (%) 14 Days After Application, ORYSA
[5] = SETFA: giant foxtail (Setaria faberi), 14 days after application, read-out: Visual Growth Reduction (%) 14 Days After Application, SETFA
[6] = SORVU: grain sorghum (Sorghum vulgare), 14 days after application, read-out: Visual Growth Reduction (%) 14 Days After Application, SORVU
[7] = STEME: common chickweed (Stellaria media), 14 days after application, read-out: Visual Growth Reduction (%) 14 Days After Application, STEME
[8] = TRZAS: wheat, spring (Triticum aestivum), 14 days after application, read-out: Visual Growth Reduction (%) 14 Days After Application, TRZAS
[9] = ALOMY: blackgrass (Alopecurus myosuroides), 14 days after application, read-out: Visual Growth Reduction (%) 14 Days After Application, ALOMY
[10] = AMARE: redroot pigweed (Amaranthus retroflexus), 14 days after application, read-out: Visual Growth Reduction (%) 14 Days After Application, AMARE
[11] = AVEFA: wild oat (Avena fatua), 14 days after application, read-out: Visual Growth Reduction (%) 14 Days After Application, AVEFA
[12] = CHEAL: lambsquarters (Chenopodium album), 14 days after application, read-out: Visual Growth Reduction (%) 14 Days After Application, CHEAL
[13] = CIRAR: canada thistle (Cirsium arvense), 14 days after application, read-out: Visual Growth Reduction (%) 14 Days After Application, CIRAR
[14] = CYPES: yellow nutsedge (Cyperus esculentus), 14 days after application, read-out: Visual Growth Reduction (%) 14 Days After Application, CYPES
[15] = DIGSA: crabgrass (Digitaria sanguinalis), 14 days after application, read-out: Visual Growth Reduction (%) 14 Days After Application, DIGSA

SMILES	pest or weed control at 140 g/ha [1]	pest or weed control at 140 g/ha [2]	pest or weed control at 140 g/ha [3]	pest or weed control at 140 g/ha [4]	pest or weed control at 140 g/ha [5]	pest or weed control at 140 g/ha [6]	pest or weed control at 140 g/ha [7]	pest or weed control at 140 g/ha [8]	pest or weed control at 140 g/ha [9]	pest or weed control at 140 g/ha [10]	pest or weed control at 140 g/ha [11]	pest or weed control at 140 g/ha [12]	pest or weed control at 140 g/ha [13]	pest or weed control at 140 g/ha [14]	pest or weed control at 140 g/ha [15]	further results
COC(=O)c1nc(-c2ccc(OC)nc2)ccc1Cl [F269, Methyl 5-chloro-6′-methoxy-[2,3′-bipyridine]-6-carboxylate]	0 to 29%	0 to 29%	30 to 44%	0 to 29%	0 to 29%	0 to 29%	0 to 29%	0 to 29%	–	–	–	–	–	–	–	pest or weed control at 140 g/ha (blackgrass (Alopecurus myosuroides), 14 Days After Application, read-out: Visual Growth Reduction (%) ALOMY): 0 to 29%; pest or weed control at 140 g/ha (canada thistle (Cirsium arvense), 14 Days After Application, read-out: Visual Growth Reduction (%) CIRAR): 30 to 44%; pest or weed control at 140 g/ha (crabgrass (Digitaria sanguinalis), 14 Days After Application, read-out: Visual Growth Reduction (%) DIGSA): 0 to 29%; pest or weed control at 140 g/ha (lambsquarters (Chenopodium album), 14 Days After Application, read-out: Visual Growth Reduction (%) CHEAL): 0 to 29%; pest or weed control at 140 g/ha (redroot pigweed (Amaranthus retroflexus), 14 Days After Application, read-out: Visual Growth Reduction (%) AMARE): 0 to 29%; pest or weed control at 140 g/ha (wild oat (Avena fatua), 14 Days After Application, read-out: Visual Growth Reduction (%) AVEFA): 0 to 29%; pest or weed control at 140 g/ha (yellow nutsedge (Cyperus esculentus), 14 Days After Application, read-out: Visual Growth Reduction (%) CYPES): 0 to 29%
O=C(O)c1nc(-c2ccc(SC(F)(F)F)cc2)c(Cl)cc1Cl [F89, 3,5-Dichloro-6-(4-((trifluoromethyl)thio)phenyl) picolinic acid]	0 to 29%	0 to 29%	0 to 29%	0 to 29%	0 to 29%	0 to 29%	0 to 29%	0 to 29%	0 to 29%	0 to 29%	0 to 29%	45 to 59%	0 to 29%	0 to 29%	30 to 44%	–
COC(=O)c1nc(-c2ccc(C(F)(F)F)cc2)c(F)cc1Cl [F93, Methyl 3-chloro-5-fluoro-6-(4-(trifluoromethyl)phenyl)picolinate]	0 to 29%	60 to 74%	0 to 29%	0 to 29%	0 to 29%	0 to 29%	0 to 29%	0 to 29%	0 to 29%	0 to 29%	0 to 29%	45 to 59%	30 to 44%	0 to 29%	60 to 74%	–
COC(=O)c1nc(-c2ccc(SC(F)(F)F)cc2Cl)c(F)cc1Cl [F135, Methyl 3-chloro-6-(2-chloro-4-((trifluoromethyl)thio)phenyl)-5 fluoropicolinate]	45 to 59%	95 to 100%	85 to 94%	0 to 29%	85 to 94%	95 to 100%	0 to 29%	45 to 59%	30 to 44%	95 to 100%	60 to 74%	85 to 94%	95 to 100%	0 to 29%	95 to 100%	–
COC(=O)c1nc(-c2c(Cl)cc(C(F)(F)F)cc2C#N)ccc1Cl [F118, Methyl 3-chloro-6-(2-chloro-6-cyano-4-(trifluoromethyl)phenyl)picolinate]	85 to 94%	95 to 100%	95 to 100%	60 to 74%	60 to 74%	85 to 94%	0 to 29%	0 to 29%	30 to 44%	95 to 100%	60 to 74%	95 to 100%	95 to 100%	45 to 59%	85 to 94%	–
